Experimental data reported in patent US20060089378A1 (priority 2004, published 2006).
Where two headings read alike, the source gives them in different places.

Tests used:
Cannabinoid CB1 Receptor = target: T1, Cannabinoid CB1 Receptor (Homo sapiens, UniProt P21554); assay: Binding assay for CB1 agonists or inverse agonists (radioligand competition, membranes of transfected SK-N-MC cells); settings: for inhibition at 0.2 µM: read-out: Cannabinoid CB1 Receptor Binding percent inhibition
T1 construct: expressed in transfected cells

CB1 receptor (human) = CB1 receptor (human) (Homo sapiens, UniProt P21554); assay: cell-based
Cannabinoid CB2 Receptor = target: T2, Cannabinoid CB2 Receptor (Homo sapiens, UniProt P34972); assay: Binding assay for CB2 agonists or inverse agonists (radioligand competition, membranes of transfected SK-N-MC cells); settings: read-out: Cannabinoid CB2 Receptor Binding percent inhibition
T2 construct: expressed in transfected cells

[1] = test concentration of 0.2 μM, compounds without an IC50 binding value

T2 sequence (P34972 whole entry): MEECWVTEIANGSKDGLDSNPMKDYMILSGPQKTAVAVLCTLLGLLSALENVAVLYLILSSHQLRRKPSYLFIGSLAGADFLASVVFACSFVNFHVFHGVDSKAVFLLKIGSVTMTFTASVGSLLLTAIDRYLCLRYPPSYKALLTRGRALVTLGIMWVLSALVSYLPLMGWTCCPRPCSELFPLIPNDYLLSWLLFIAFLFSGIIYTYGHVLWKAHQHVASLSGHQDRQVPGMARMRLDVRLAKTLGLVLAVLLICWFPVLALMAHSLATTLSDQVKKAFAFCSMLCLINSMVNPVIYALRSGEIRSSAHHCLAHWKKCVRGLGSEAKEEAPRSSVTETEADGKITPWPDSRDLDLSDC
Sequence of CB1 receptor (human) (P21554 whole entry): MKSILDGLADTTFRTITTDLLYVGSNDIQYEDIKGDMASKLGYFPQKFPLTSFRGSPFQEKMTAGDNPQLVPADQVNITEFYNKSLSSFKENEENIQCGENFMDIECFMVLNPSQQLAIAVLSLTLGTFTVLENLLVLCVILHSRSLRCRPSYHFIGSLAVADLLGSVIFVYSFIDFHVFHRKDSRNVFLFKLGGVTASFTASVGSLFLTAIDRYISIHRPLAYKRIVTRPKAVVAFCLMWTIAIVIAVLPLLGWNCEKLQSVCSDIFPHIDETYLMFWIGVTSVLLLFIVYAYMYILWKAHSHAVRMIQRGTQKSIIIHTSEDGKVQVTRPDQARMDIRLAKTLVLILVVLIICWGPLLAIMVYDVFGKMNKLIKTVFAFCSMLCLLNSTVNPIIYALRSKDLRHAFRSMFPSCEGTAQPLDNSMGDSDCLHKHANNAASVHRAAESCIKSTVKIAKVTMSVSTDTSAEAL
T1 sequence (P21554 whole entry): as above

SMILES | IC50 (Cannabinoid CB1 Receptor) [nM] | EC50 (CB1 receptor (human)) [nM] | inhibition at 0.2 µM (Cannabinoid CB2 Receptor) [%] | inhibition at 0.2 µM (Cannabinoid CB2 Receptor; [1]) [%] | inhibition at 0.2 µM (Cannabinoid CB1 Receptor) [%] | CB1 Receptor Functional Activity (change in functional activity, CRE β-gal) (CB1 receptor (human); one compound concentration, β-galactosidase activity relative to vehicle treated cells) [%] | inhibition at 0.2 µM (Cannabinoid CB1 Receptor; [1]) [%]
COC(=O)N1C/C(=C\c2ccc(F)cc2)c2c(c(C(=O)N[C@H](C)c3ccccc3)nn2-c2ccc(Cl)cc2Cl)C1 [Cpd 1, (7E)-1-(2,4-dichloro-phenyl)-7-(4-fluoro-benzylidene)-3-[(1R)-1-phenyl-ethyl-carbamoyl]-1,4,6,7-tetrahydro-pyrazolo[4,3-c]pyridine-5-carboxylic acid methyl ester] | 3 | 1 | 26 | – | – | – | –
C[C@@H](NC(=O)c1nn(-c2ccc(Cl)cc2Cl)c2c1CN(C(=O)OC(C)(C)C)C/C2=C\c1ccc(F)cc1)c1ccccc1 [Cpd 2, (7E)-1-(2,4-dichloro-phenyl)-7-(4-fluoro-benzylidene)-3-[(1R)-1-phenyl-ethyl-carbamoyl]-1,4,6,7-tetrahydro-pyrazolo[4,3-c]pyridine-5-carboxylic acid tert-butyl ester] | 30 | 10 | 16 | – | – | – | –
CC(=O)N1C/C(=C\c2ccc(F)cc2)c2c(c(C(=O)N[C@H](C)c3ccccc3)nn2-c2ccc(Cl)cc2Cl)C1 [Cpd 3, (7E)-5-acetyl-1-(2,4-dichloro-phenyl)-7-(4-fluoro-benzylidene)-4,5,6,7-tetrahydro-1H-pyrazolo[4,3-c]pyridine-3-carboxylic acid [(1R)-1-phenyl-ethyl]-amide] | 10 | 3 | 20 | – | – | – | –
CC(=O)N1C/C(=C\c2ccc(F)cc2)c2c(c(C(=O)N[C@@H](C)C3CCCCC3)nn2-c2ccc(Cl)cc2Cl)C1 [Cpd 6, (7E)-5-acetyl-1-(2,4-dichloro-phenyl)-7-(4-fluoro-benzylidene)-4,5,6,7-tetrahydro-1H-pyrazolo[4,3-c]pyridine-3-carboxylic acid [(1S)-1-cyclohexyl-ethyl]-amide] | 100 | 30 | 14 | – | – | – | –
COC(=O)N1C/C(=C\c2ccc(F)cc2)c2c(c(C(=O)N[C@@H](C)C3CCCCC3)nn2-c2ccc(Cl)cc2Cl)C1 [Cpd 7, (7E)-3-[(1S)-1-cyclohexyl-ethylcarbamoyl]-1-(2,4-dichloro-phenyl)-7-(4-fluoro-benzylidene)-1,4,6,7-tetrahydro-pyrazolo[4,3-c]pyridine-5-carboxylic acid methyl ester] | 40 | 10 | – | 13 | – | – | –
C[C@@H](NC(=O)c1nn(-c2ccc(Cl)cc2Cl)c2c1CN(C(=O)OC(C)(C)C)C/C2=C\c1ccc(F)cc1)C1CCCCC1 [Cpd 8, (7E)-3-[(1R)-1-cyclohexyl-ethylcarbamoyl]-1-(2,4-dichloro-phenyl)-7-(4-fluoro-benzylidene)-1,4,6,7-tetrahydro-pyrazolo[4,3-c]pyridine-5-carboxylic acid tert-butyl ester] | 60 | 200 | 34 | – | – | – | –
CC(C)(C)OC(=O)N1C/C(=C\c2ccc(F)cc2)c2c(c(C(=O)NN3CCCCC3)nn2-c2ccc(Cl)cc2Cl)C1 [Cpd 9, (7E)-1-(2,4-dichloro-phenyl)-7-(4-fluoro-benzylidene)-3-(piperidin-1-ylcarbamoyl)-1,4,6,7-tetrahydro-pyrazolo[4,3-c]pyridine-5-carboxylic acid tert-butyl ester] | – | 20 | 8 | – | 55 | – | –
CC(=O)N1C/C(=C\c2ccc(F)cc2)c2c(c(C(=O)NN3CCCCC3)nn2-c2ccc(Cl)cc2Cl)C1 [Cpd 10, (7E)-5-acetyl-1-(2,4-dichloro-phenyl)-7-(4-fluoro-benzylidene)-4,5,6,7-tetrahydro-1H-pyrazolo[4,3-c]pyridine-3-carboxylic acid piperidin-1-ylamide] | 70 | 20 | 63 | – | – | – | –
COC(=O)N1C/C(=C\c2ccc(F)cc2)c2c(c(C(=O)NN3CCCCC3)nn2-c2ccc(Cl)cc2Cl)C1 [Cpd 11, (7E)-1-(2,4-dichloro-phenyl)-7-(4-fluoro-benzylidene)-3-(piperidin-1-ylcarbamoyl)-1,4,6,7-tetrahydro-pyrazolo[4,3-c]pyridine-5-carboxylic acid methyl ester] | 50 | 40 | 15 | – | – | – | –
O=C(NN1CCCCC1)c1nn(-c2ccc(Cl)cc2Cl)c2c1CNC/C2=C\c1ccc(F)cc1 [Cpd 12, (7E)-1-(2,4-dichloro-phenyl)-7-(4-fluoro-benzylidene)-4,5,6,7-tetrahydro-1H-pyrazolo[4,3-c]pyridine-3-carboxylic acid piperidin-1-ylamide] | 100 | 80 | 5 | – | – | – | –
COC(=O)N1C/C(=C\c2ccc(F)cc2)c2c(c(C(=O)N[C@H](C)C3CCCCC3)nn2-c2ccc(Cl)cc2Cl)C1 [Cpd 13, (7E)-3-[(1R)-1-cyclohexyl-ethylcarbamoyl]-1-(2,4-dichloro-phenyl)-7-(4-fluoro-benzylidene)-1,4,6,7-tetrahydro-pyrazolo[4,3-c]pyridine-5-carboxylic acid methyl ester] | 2 | 10 | – | 11 | – | – | –
CC(=O)N1C/C(=C\c2ccc(F)cc2)c2c(c(C(=O)N[C@H](C)C3CCCCC3)nn2-c2ccc(Cl)cc2Cl)C1 [Cpd 14, (7E)-5-acetyl-1-(2,4-dichloro-phenyl)-7-(4-fluoro-benzylidene)-4,5,6,7-tetrahydro-1H-pyrazolo[4,3-c]pyridine-3-carboxylic acid [(1R)-1-cyclohexyl-ethyl]-amide] | 8 | 4 | 16 | – | – | – | –
C[C@@H](NC(=O)c1nn(-c2ccc(Cl)cc2Cl)c2c1CNC/C2=C\c1ccc(F)cc1)c1ccccc1 [Cpd 15, (7E)-1-(2,4-dichloro-phenyl)-7-(4-fluoro-benzylidene)-4,5,6,7-tetrahydro-1H-pyrazolo[4,3-c]pyridine-3-carboxylic acid [(1R)-1-phenyl-ethyl]-amide] | 10 | 10 | 23 | – | – | – | –
C[C@@H](NC(=O)c1nn(-c2ccc(Cl)cc2Cl)c2c1CN(C(=O)OCc1ccccc1)C/C2=C\c1ccc(F)cc1)c1ccccc1 [Cpd 16, (7E)-1-(2,4-dichloro-phenyl)-7-(4-fluoro-benzylidene)-3-[(1R)-1-phenyl-ethylcarbamoyl]-1,4,6,7-tetrahydro-pyrazolo[4,3-c]pyridine-5-carboxylic acid benzyl ester] | 20 | 60 | 27 | – | – | – | –
CCNC(=O)N1CCc2c(c(C(=O)NC3C4(C)CCC(C4)C3(C)C)nn2C2CCCCC2)C1 (stereo not shown) [Cpd 129, 1-cyclohexyl-1,4,6,7-tetrahydro-pyrazolo[4,3-c]pyridine-3,5-dicarboxylic acid 5-ethylamide 3-[(1,3,3-trimethyl-bicyclo[2.2.1]hept-2-yl)-amide]] | 1000 | – | – | – | – | 36 | –
COc1ccc(/C=C2\CN(C(=O)OC(C)(C)C)Cc3c(C(=O)N4CCCCC4)nn(-c4ccc(Cl)cc4Cl)c32)cc1 [Cpd 137, (7E)-1-(2,4-dichloro-phenyl)-7-(4-methoxy-benzylidene)-3-(piperidine-1-carbonyl)-1,4,6,7-tetrahydro-pyrazolo[4,3-c]pyridine-5-carboxylic acid tert-butyl ester] | – | – | – | 42 | – | – | 34
COc1ccc(/C=C2\CN(C(=O)OC(C)(C)C)Cc3c(C(=O)NN4CCC(O)CC4)nn(-c4ccc(Cl)cc4Cl)c32)cc1 [Cpd 141, (7E)-1-(2,4-dichloro-phenyl)-3-(4-hydroxy-piperidin-1-ylcarbamoyl)-7-(4-methoxy-benzylidene)-1,4,6,7-tetrahydro-pyrazolo[4,3-c]pyridine-5-carboxylic acid tert-butyl ester] | – | – | – | 9 | – | – | 6
COc1ccc(/C=C2\CNCc3c(C(=O)NN4CCC(O)CC4)nn(-c4ccc(Cl)cc4Cl)c32)cc1 [Cpd 142, (7E)-1-(2,4-dichloro-phenyl)-7-(4-methoxy-benzylidene)-4,5,6,7-tetrahydro-1H-pyrazolo[4,3-c]pyridine-3-carboxylic acid (4-hydroxy-piperidin-1-yl)-amide] | – | – | – | 0 | – | – | 10
CC(C)(C)OC(=O)N1C/C(=C\c2ccc(F)cc2)c2c(c(C(=O)NN3CCC(O)CC3)nn2-c2ccc(Cl)cc2Cl)C1 [Cpd 143, (7E)-1-(2,4-dichloro-phenyl)-7-(4-fluoro-benzylidene)-3-(4-hydroxy-piperidin-1-ylcarbamoyl)-1,4,6,7-tetrahydro-pyrazolo[4,3-c]pyridine-5-carboxylic acid tert-butyl ester] | – | – | – | 0 | – | – | 4
COC(=O)N1C/C(=C\c2ccc(OC)cc2)c2c(c(C(=O)NN3CCC(O)CC3)nn2-c2ccc(Cl)cc2Cl)C1 [Cpd 144, (7E)-1-(2,4-dichloro-phenyl)-3-(4-hydroxy-piperidin-1-ylcarbamoyl)-7-(4-methoxy-benzylidene)-1,4,6,7-tetrahydro-pyrazolo[4,3-c]pyridine-5-carboxylic acid methyl ester] | – | – | – | 27 | – | – | 42
O=C(NN1CCC(O)CC1)c1nn(-c2ccc(Cl)cc2Cl)c2c1CNC/C2=C\c1ccc(F)cc1 [Cpd 145, (7E)-1-(2,4-dichloro-phenyl)-7-(4-fluoro-benzylidene)-4,5,6,7-tetrahydro-1H-pyrazolo[4,3-c]pyridine-3-carboxylic acid (4-hydroxy-piperidin-1-yl)-amide] | – | – | – | 5 | – | – | 12
COC(=O)N1C/C(=C\c2ccc(F)cc2)c2c(c(C(=O)NN3CCC(O)CC3)nn2-c2ccc(Cl)cc2Cl)C1 [Cpd 146, (7E)-1-(2,4-dichloro-phenyl)-7-(4-fluoro-benzylidene)-3-(4-hydroxy-piperidin-1-ylcarbamoyl)-1,4,6,7-tetrahydro-pyrazolo[4,3-c]pyridine-5-carboxylic acid methyl ester] | – | – | – | 11 | – | – | 40
